According to EP1127574A1, “Use of chitinous materials for inhibiting cellular nitric oxide production” (Food Industry Research and Development Institute, priority 2000, dated 2001):

Columns and labels:
RAW 264.7 cells [1] = experiment: Measurement of NO production via nitrite detection (Griess reagents) in IFN-γ and LPS activated macrophages; type: cell-based, mouse; details: for effect on NO production (in words): activated RAW 264.7 cells
Protocol: (§1) Cell culture. NIH/3T3 (mouse embryo fibroblast, CCRC 60008) and RAW 264.7 (mouse monocyte/macrophage, CCRC 60001) cell lines were obtained from Culture Collection and Research Center (CCRC), Taiwan. Both cell lines were cultured in Dulbecco's modified essential medium (DMEM, GIBCO BRL, Rockville, MD) containing 1.5 g/L NaHCO3 supplemented with 10% fetal bovine serum (Hyclone, Logan, UT) and incubated in 5% CO2 at 37°C. Cell cultures were examined for mycoplasma contamination with the fluorescent stain Hoechst 33258 (Hay et al., ATCC Quality Control Methods for Cell Lines, American Type Culture Collection, Manassas, VA, 1992, pp 23-33). All cultures described in the present example were mycoplasma-free.
Collagen/chitin-coated wells. Two mixtures were prepared. A mixture of collagen type I (rat tail, Sigma, St. Louis, MO) was dissolved in 0.1 N acetic acid to produce a 1 mg/ml collagen solution. Chitin was added to 0.1 N acetic acid until a 1 mg/ml mixture was achieved, and the mixture was sonicated for 3 minutes using a Labsonic U sonicator, (Braun Biotech International, Germany). After being autoclaved at 121°C for 15 minutes, the chitin mixture became a slurry of fine wires. Microtiter tissue culture plates (96-well) were rinsed with Dulbecco's phosphate-buffer saline without Ca^+2 and Mg^+2 (D-PBS, GIBCO BRL). Five microliters of collagen solution or different amounts of the chitin mixture were then added to each well. The plates were then air-dried in a laminar flow hood and stored at 4°C for up to a week.
Measurement of NO production via nitrite detection. Nitric oxide (NO) production was indirectly quantified by measuring the accumulation of nitrite (NO2^-) in the culture media using Griess reagents and sodium nitrite as a standard (Green et al., Anal. Biochem. 126:131-138, 1982; and Ignarro et al., Proc. Natl. Acad. Sci. USA 90:8103-8107, 1993). For nitrite assays, RAW 264.7 cells were subcultured in coated 96-well tissue culture plates at 1 x 10^5 cells/well and incubated for 24 hours. The culture media were changed to phenol red-free, serum-free DMEM containing 100 U/ml interferon-γ (IFN-γ, recombinant murine; GIBCO BRL) and 100 ng/ml lipopolysaccharide (LPS, Escherichia coli serotype O128:B12; Sigma). The samples were then tested as described in Rollo et al., J. Leukoc. Biol. 60:397-404, 1996.
To measure the effect of chitin on NO production, cells were subcultured directly in the chitin-coated 96-well tissue culture plates. After overnight incubation, cells became adhered to the bottom of chitin-coated wells. The culture media were removed and replaced with media supplemented with IFN-γ and LPS as described above. After 48 hours incubation, […] of culture supernatants were mixed sequentially with equal volumes of 60 mM sulfanilamide (Sigma) in 3 N HCl and 4 mM N-1-naphthylethylenediamine (Sigma) and then shaken for 5 minutes at room temperature as described in Rollo et al., supra. Nitrite concentration was measured by reading the sample's absorbance at 540 nm using a microplate reader (MRX, Dynex Technologies, Inc., VA).

RAW 264.7 cells [2] = experiment: Cytotoxicity test (MTT dye), RAW 264.7; type: cell-based, mouse
Protocol: as §1
Collagen/chitin-coated wells. Two mixtures were prepared. A mixture of collagen type I (rat tail, Sigma, St. Louis, MO) was dissolved in 0.1 N acetic acid to produce a 1 mg/ml collagen solution. […]
Cytotoxicity test. […] Cytotoxicity was measured using the dye 3-(4,5-dimethylthiazol-2-yl)-2,5-diphenyl tetrazolium bromide (MTT; Merck Co., Germany) and following the methods described in Mosmann, J. Immunol. […]
The cytotoxicity associated with chitin and chitosan was evaluated for both mouse embryonic fibroblast NIH/3T3 cells and mouse monocyte-macrophage RAW 264.7 cells. […]

[3] = 10 µg/ml in culture medium, activated RAW 264.7
[4] = Mus musculus, RAW264.7, 48 h, 10 µg/ml in culture medium, activated RAW 264.7, read-out: Nitrite Production as Percentage of Control
[5] = 2 µg/ml in culture medium, activated RAW 264.7
[6] = 10 µg/ml in culture medium, activated RAW 264.7, 2880 min

Compound: CC(=O)N[C@H]1C(O)O[C@H](CO)[C@@H](O)[C@@H]1O (stereo partly shown) [NAGA, N-acetylglucosamine, reference compound]
- Nitrite Production (RAW 264.7 cells [1]; [3]): 66.7 ± 0.9 µM
- activity at 10 µg/mL (RAW 264.7 cells [1]; [4]): 102%
- cytotoxicity (RAW 264.7 cells [2]): not cytotoxic

Compound: CC(=O)N[C@H]1[C@H](O[C@H]2[C@H](O)[C@@H](NC(C)=O)C(O)O[C@@H]2CO)O[C@H](CO)[C@@H](O)[C@@H]1O (stereo partly drawn) [chitobiose, 2-acetamido-2-deoxy-4-O-(2-acetamido-2-deoxy-b-D-glucopyranosyl)-D-glucopyranose]
- Nitrite Production (RAW 264.7 cells [1]; [5]): 64.9 ± 0.8 µM
- Nitrite Production (RAW 264.7 cells [1]; [3]): 64.1 ± 0.9 µM
- activity at 2 µg/mL (RAW 264.7 cells [1]; Mus musculus, RAW264.7, 48 h, 2 µg/ml in culture medium, activated RAW 264.7, read-out: Nitrite Production as Percentage of Control): 98.9%
- activity at 10 µg/mL (RAW 264.7 cells [1]; [4]): 97.7%

Compound: N[C@H]1C(O)O[C@H](CO)[C@@H](O)[C@@H]1O (stereo partly shown) [glucoseamine, glucosamine, reference compound]
- Nitrite Production (RAW 264.7 cells [1]; [3]): 64.3 ± 0.8 µM
- activity at 10 µg/mL (RAW 264.7 cells [1]; [4]): 98%
- cytotoxicity (RAW 264.7 cells [2]): not cytotoxic

Compound: chitohexose
- Nitrite Production (RAW 264.7 cells [1]; [5]): 41.3 ± 0.8 µM
- Nitrite Production as Percentage of Control (RAW 264.7 cells [1]; [5]): 63 Percentage of Control
- Nitrite Production (RAW 264.7 cells [1]; [3]): 35.8 ± 2.9 µM
- Nitrite Production as Percentage of Control (RAW 264.7 cells [1]; [6]): 54.5 Percentage of Control
- effect on NO production (in words) (RAW 264.7 cells [1]): did substantially decrease NO production

Compound: chitopentose
- Nitrite Production (RAW 264.7 cells [1]; [5]): 47.0 ± 0.5 µM
- Nitrite Production as Percentage of Control (RAW 264.7 cells [1]; [5]): 70.6 Percentage of Control
- Nitrite Production (RAW 264.7 cells [1]; [3]): 42.7 ± 1.2 µM
- Nitrite Production as Percentage of Control (RAW 264.7 cells [1]; [6]): 65.1 Percentage of Control
- effect on NO production (in words) (RAW 264.7 cells [1]): did substantially decrease NO production

Compound: chitotetraose
- Nitrite Production (RAW 264.7 cells [1]; [5]): 63.4 ± 0.5 µM
- Nitrite Production as Percentage of Control (RAW 264.7 cells [1]; [5]): 96.6 Percentage of Control
- Nitrite Production (RAW 264.7 cells [1]; [3]): 61.3 ± 0.6 µM
- Nitrite Production as Percentage of Control (RAW 264.7 cells [1]; [6]): 93.4 Percentage of Control

Compound: chitotriose
- Nitrite Production (RAW 264.7 cells [1]; [5]): 61.5 ± 0.9 µM
- Nitrite Production as Percentage of Control (RAW 264.7 cells [1]; [5]): 93.8 Percentage of Control
- Nitrite Production (RAW 264.7 cells [1]; [3]): 61.1 ± 0.2 µM
- Nitrite Production as Percentage of Control (RAW 264.7 cells [1]; [6]): 93.1 Percentage of Control
